Laboratory results published in PubChem BioAssay (NCI).
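Growth conditions: 96-well plates. Treatment: test compound, 48 hours, 5 concentrations. Analysis: linear interpolation between bracketing concentrations; unreached endpoints set to highest concentration. GI50 is the concentration that inhibits growth by half. TGI: total growth inhibition.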

Tests used:
Test in all cases: NCI-60 cell line screen, 48 h
EKVX NSCLC = system: EKVX NSCLC
SN12C renal = system: SN12C renal
SF-295 CNS = system: SF-295 CNS
SNB-75 CNS = system: SNB-75 CNS
HS 578T breast = system: HS 578T breast
U251 CNS = system: U251 CNS
SK-OV-3 ovarian = system: SK-OV-3 ovarian
SNB-19 CNS = system: SNB-19 CNS
SR leukemia = system: SR leukemia
SW-620 colon = system: SW-620 colon
HL-60(TB) leukemia = system: HL-60(TB) leukemia
MDA-MB-435 = system: MDA-MB-435
A549 NSCLC = system: A549 NSCLC
KM12 colon = system: KM12 colon
RXF 393 renal = system: RXF 393 renal
PC-3 prostate = system: PC-3 prostate
A498 renal = system: A498 renal
HCT-116 colon = system: HCT-116 colon
MOLT-4 leukemia = system: MOLT-4 leukemia
CCRF-CEM leukemia = system: CCRF-CEM leukemia
SF-539 CNS = system: SF-539 CNS
NCI-H226 lung = system: NCI-H226 lung
IGROV1 ovarian = system: IGROV1 ovarian
HOP-62 NSCLC = system: HOP-62 NSCLC
786-0 renal = system: 786-0 renal
MDA-MB-231 breast = system: MDA-MB-231 breast
HCC-2998 colon = system: HCC-2998 colon
NCI-H460 lung = system: NCI-H460 lung
NCI-H522 lung = system: NCI-H522 lung
COLO 205 colon = system: COLO 205 colon
DU-145 prostate = system: DU-145 prostate
K-562 leukemia = system: K-562 leukemia
HCT-15 colon = system: HCT-15 colon
UACC-257 melanoma = system: UACC-257 melanoma
OVCAR-5 ovarian = system: OVCAR-5 ovarian
TK-10 renal = system: TK-10 renal
NCI-H23 lung = system: NCI-H23 lung
SK-MEL-2 melanoma = system: SK-MEL-2 melanoma
OVCAR-3 ovarian = system: OVCAR-3 ovarian
HOP-92 NSCLC = system: HOP-92 NSCLC
SK-MEL-5 melanoma = system: SK-MEL-5 melanoma
OVCAR-4 ovarian = system: OVCAR-4 ovarian
MCF7 breast = system: MCF7 breast
SK-MEL-28 melanoma = system: SK-MEL-28 melanoma
OVCAR-8 ovarian = system: OVCAR-8 ovarian
RPMI-8226 leukemia = system: RPMI-8226 leukemia
NCI/ADR-RES ovarian = system: NCI/ADR-RES ovarian
UACC-62 melanoma = system: UACC-62 melanoma
UO-31 renal = system: UO-31 renal
LOX IMVI melanoma = system: LOX IMVI melanoma
SF-268 CNS = system: SF-268 CNS
BT-549 breast = system: BT-549 breast

## COC(=O)[C@@H](C)C[C@H](Cc1ccccc1)NC(=O)c1nc([C@@H](C[C@H](C(C)C)N(C)C(=O)[C@@H](NC(=O)[C@H]2CCCN2C)C(C)C)OC(C)=O)sc1C
EKVX NSCLC
  GI50: 0.0106 µM
  TGI: > 25 µM
SN12C renal
  GI50: < 0.0025 µM
  TGI: > 25 µM
SF-295 CNS
  GI50: < 0.0025 µM
  TGI: > 25 µM
SNB-75 CNS
  GI50: < 0.0025 µM
  TGI: > 25 µM
HS 578T breast
  GI50: < 0.0025 µM
  TGI: 15.8 µM
U251 CNS
  GI50: 0.00347 µM
  TGI: > 25 µM
SK-OV-3 ovarian
  GI50: < 0.0025 µM
  TGI: > 25 µM
SNB-19 CNS
  GI50: < 0.0025 µM
  TGI: > 25 µM
SR leukemia
  GI50: < 0.0025 µM
  TGI: > 25 µM
SW-620 colon
  GI50: < 0.0025 µM
  TGI: > 25 µM
HL-60(TB) leukemia
  GI50: < 0.0025 µM
  TGI: < 0.0025 µM
MDA-MB-435
  GI50: < 0.0025 µM
  TGI: < 0.0025 µM
A549 NSCLC
  GI50: 0.0207 µM
  TGI: > 25 µM
KM12 colon
  GI50: < 0.0025 µM
  TGI: > 25 µM
RXF 393 renal
  GI50: < 0.0025 µM
  TGI: > 25 µM
PC-3 prostate
  GI50: < 0.0025 µM
  TGI: > 25 µM
A498 renal
  GI50: < 0.0025 µM
  TGI: 0.00808 µM
HCT-116 colon
  GI50: < 0.0025 µM
  TGI: > 25 µM
MOLT-4 leukemia
  GI50: 0.00278 µM
  TGI: > 25 µM
CCRF-CEM leukemia
  GI50: < 0.0025 µM
  TGI: > 25 µM
SF-539 CNS
  GI50: 0.00339 µM
  TGI: 0.201 µM
NCI-H226 lung
  GI50: 0.16 µM
  TGI: > 25 µM
IGROV1 ovarian
  GI50: < 0.0025 µM
  TGI: > 25 µM
HOP-62 NSCLC
  GI50: 0.00618 µM
  TGI: > 25 µM
786-0 renal
  GI50: < 0.0025 µM
  TGI: 24.2 µM
MDA-MB-231 breast
  GI50: 0.00613 µM
  TGI: 4.64 µM
HCC-2998 colon
  GI50: < 0.0025 µM
  TGI: > 25 µM
NCI-H460 lung
  GI50: < 0.0025 µM
  TGI: > 25 µM
NCI-H522 lung
  GI50: < 0.0025 µM
  TGI: < 0.0025 µM
COLO 205 colon
  GI50: 0.00275 µM
  TGI: 0.0326 µM
DU-145 prostate
  GI50: < 0.0025 µM
  TGI: > 25 µM
K-562 leukemia
  GI50: < 0.0025 µM
  TGI: > 25 µM
HCT-15 colon
  GI50: 0.0119 µM
  TGI: > 25 µM
UACC-257 melanoma
  GI50: > 25 µM
  TGI: > 25 µM
OVCAR-5 ovarian
  GI50: 0.0105 µM
  TGI: > 25 µM
TK-10 renal
  GI50: > 25 µM
  TGI: > 25 µM
NCI-H23 lung
  GI50: 0.00806 µM
  TGI: > 25 µM
SK-MEL-2 melanoma
  GI50: < 0.0025 µM
  TGI: > 25 µM
OVCAR-3 ovarian
  GI50: < 0.0025 µM
  TGI: > 25 µM
HOP-92 NSCLC
  GI50: 7.33 µM
  TGI: > 25 µM
SK-MEL-5 melanoma
  GI50: < 0.0025 µM
  TGI: 0.0698 µM
OVCAR-4 ovarian
  GI50: 0.542 µM
  TGI: > 25 µM
MCF7 breast
  GI50: < 0.0025 µM
  TGI: > 25 µM
SK-MEL-28 melanoma
  GI50: 0.0165 µM
  TGI: > 25 µM
OVCAR-8 ovarian
  GI50: < 0.0025 µM
  TGI: > 25 µM
RPMI-8226 leukemia
  GI50: < 0.0025 µM
  TGI: > 25 µM
NCI/ADR-RES ovarian
  GI50: 0.235 µM
  TGI: > 25 µM
UACC-62 melanoma
  GI50: < 0.0025 µM
  TGI: > 25 µM
UO-31 renal
  GI50: 0.0154 µM
  TGI: > 25 µM
LOX IMVI melanoma
  GI50: 0.00837 µM
  TGI: > 25 µM
SF-268 CNS
  GI50: 0.00712 µM
  TGI: > 25 µM
BT-549 breast
  GI50: < 0.0025 µM
  TGI: 0.145 µM
